Reference: US20240083861A1, “HSD17B13 INHIBITORS AND USES THEREOF” (FL2022-001, Inc., priority 2020, published 2024)

target: T1, Recombinant human HSD17B13 enzyme (Homo sapiens, UniProt Q7Z5P4); assay: HSD17b13 NAD(P)H-Glo biochemical assay; conditions: 50 uM estradiol, 1 mM NAD+, NAD(P)H-Glo luminescence; read-out: HSD17β13 IC50
T1 sequence (Q7Z5P4 20-300): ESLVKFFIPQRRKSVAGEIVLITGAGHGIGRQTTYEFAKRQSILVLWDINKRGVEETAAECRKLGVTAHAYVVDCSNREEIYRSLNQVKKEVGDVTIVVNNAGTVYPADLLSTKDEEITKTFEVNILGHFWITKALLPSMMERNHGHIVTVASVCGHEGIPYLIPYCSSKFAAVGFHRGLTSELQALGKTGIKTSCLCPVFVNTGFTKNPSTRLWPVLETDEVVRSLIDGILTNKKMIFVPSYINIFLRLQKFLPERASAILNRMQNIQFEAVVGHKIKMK
Experimental: Example B-1: HSD17b13 NAD(P)H-Glo Biochemical Assay
Recombinant human HSD17B13 enzyme. Substrate: estradiol (Sigma β-Estradiol E8875), 100 mM in DMSO. Cofactor: NAD+ Grade I free acid (Sigma 10127965001), 20 mM in H2O. Assay buffer final concentration: 20 mM Tris pH7.4 with 0.002% Tween-20 and 0.02% BSA. Assay performed in 384 well solid bottom plate (Corning 3570). Enzymatic activity detected by NAD(P)H-Glo™ Detection System (Promega G9062).
Inhibitor compounds were serially diluted in DMSO and then further diluted in assay buffer to a 10× concentration consisting of 1% DMSO.
HSD17b13 enzyme was diluted in 1× assay buffer to the desired enzyme concentration based on the specific activity of the enzyme lot. 20 uL of diluted enzyme was added to each well along with 2.5 uL of 10× inhibitor solution. Assay plate was incubated at RT for 20 minutes, and then 2.5 uL of a 10× substrate/cofactor mix was added to each well for a final concentration of 50 uM estradiol and 1 mM NAD+. Assay plate was incubated at 37° C. for 3 hours. NAD(P)H-Glo™ Detection System reagents were prepared according to manufacturer's specifications, and 25 uL was added to each well. After incubating for 1 hour at RT, luminescence was measured.

| Structure (SMILES) | IC50 [nM] |
| --- | --- |
| O=C(NC1CCC1)c1ccc2oc(-c3cc(O)c(F)c(F)c3)nc2c1 [Compound 1, N-Cyclobutyl-2-(3,4-difluoro-5-hydroxyphenyl)benzo[d]oxazole-5-carboxamide] | < 100 |
| O=C(NC1CCCC1)c1ccc2oc(-c3cc(O)c(F)c(F)c3)nc2c1 [Compound 1.02, N-Cyclopentyl-2-(3,4-difluoro-5-hydroxyphenyl)benzo[d]oxazole-5-carboxamide] | < 100 |
| O=C(NC1CCCCC1)c1ccc2oc(-c3cc(O)c(F)c(F)c3)nc2c1 [Compound 1.03, N-Cyclohexyl-2-(3,4-difluoro-5-hydroxyphenyl)benzo[d]oxazole-5-carboxamide] | < 100 |
| CS(=O)(=O)N1CCN(C(=O)c2ccc3oc(-c4cc(O)c(F)c(F)c4)nc3c2)CC1 [Compound 1.04, (2-(3,4-Difluoro-5-hydroxyphenyl)benzo[d]oxazol-5-yl)(4-(methylsulfonyl)piperazin-1-yl)methanone] | 1000 to 30000 |
| CS(=O)(=O)NC1CN(C(=O)c2ccc3oc(-c4cc(O)c(F)c(F)c4)nc3c2)C1 [Compound 1.05, N-(1-(2-(3,4-Difluoro-5-hydroxyphenyl)benzo[d]oxazole-5-carbonyl)azetidin-3-yl)methanesulfonamide] | 100 to 1000 |
| COC1CCN(C(=O)c2ccc3oc(-c4cc(O)c(F)c(F)c4)nc3c2)CC1 [Compound 1.08, (2-(3,4-Difluoro-5-hydroxyphenyl)benzo[d]oxazol-5-yl)(4-methoxypiperidin-1-yl)methanone] | 1000 to 30000 |
| O=C(NC12CC(O)(C1)C2)c1ccc2oc(-c3cc(O)c(F)c(C(F)(F)F)c3)nc2c1 [Compound 1.11, 2-(4-Fluoro-3-hydroxy-5-(trifluoromethyl)phenyl)-N-(3-hydroxybicyclo[1.1.1]pentan-1-yl)benzo[d]oxazole-5-carboxamide] | 100 to 1000 |
| O=C(NC12CC(C1)C2)c1ccc2oc(-c3cc(C(F)(F)F)cc(O)c3F)nc2c1 [Compound 1.12, N-(Bicyclo[1.1.1]pentan-1-yl)-2-(2-fluoro-3-hydroxy-5-(trifluoromethyl)phenyl)benzo[d]oxa-zole-5-carboxamide] | < 100 |
| O=C(NC12CC(C1)C2)c1ccc2oc(-c3cc(C(F)(F)F)c(F)c(O)c3F)nc2c1 [Compound 1.13, N-(Bicyclo[1.1.1]pentan-1-yl)-2-(2,4-difluoro-3-hydroxy-5-(trifluoromethyl)phenyl)benzo[d]oxa-zole-5-carboxamide] | < 100 |
| O=C(NC1CCC1)c1ccc2oc(-c3cc(C(F)(F)F)c(F)c(O)c3F)nc2c1 [Compound 1.14, N-Cyclobutyl-2-(2,4-difluoro-3-hydroxy-5-(trifluoromethyl)phenyl)benzo[d]oxa-zole-5-carboxamide] | < 100 |

Continued, values first:

| IC50 [nM] | Structure (SMILES) |
| --- | --- |
| 1000 to 30000 | O=C(NC1CC1)c1ccc2oc(-c3cc(O)c(F)c(F)c3)nc2c1 [Compound 1.01, N-Cyclopropyl-2-(3,4-difluoro-5-hydroxyphenyl)benzo[d]oxazole-5-carboxamide] |
| 100 to 1000 | O=C(c1ccc2oc(-c3cc(O)c(F)c(F)c3)nc2c1)N1CCOCC1 [Compound 1.06, (2-(3,4-Difluoro-5-hydroxyphenyl)benzo[d]oxazol-5-yl)(morpholino)methanone] |
| 100 to 1000 | O=C(NC1CCOCC1)c1ccc2oc(-c3cc(O)c(F)c(F)c3)nc2c1 [Compound 1.07, 2-(3,4-Difluoro-5-hydroxyphenyl)-N-(tetrahydro-2H-pyran-4-yl)benzo[d]oxazole-5-carboxamide] |
| < 100 | O=C(NC12CC(C1)C2)c1ccc2oc(-c3cc(O)c(F)c(F)c3)nc2c1 [Compound 1.09, N-(Bicyclo[1.1.1]pentan-1-yl)-2-(3,4-difluoro-5-hydroxyphenyl)benzo[d]oxazole-5-carboxamide] |
| < 100 | O=C(NC12CC(C1)C2)c1ccc2oc(-c3cc(O)c(F)c(C(F)(F)F)c3)nc2c1 [Compound 1.10, N-(Bicyclo[1.1.1]pentan-1-yl)-2-(4-fluoro-3-hydroxy-5-(trifluoromethyl)phenyl)benzo[d]oxa-zole-5-carboxamide] |
